Columns and labels:
[1] = system: genus Bacillus; details: quoted from WO2015191789, page 31; cited from earlier work
[2] = system: Puccinia recondita; assay: wheat leaf disc assay, Puccinia recondita, curative spray timing; assay type: in vivo
Procedure: (§1) Cyclothiazomycin C was produced as disclosed in WO2015191789. A stock solution for cyclothiazomycin C was produced in DMSO (max. 10 mg/ml). Malonomicin was produced according to Law et al, 2018 (Nature Catalys is|VOL 1|DECEMBER 2018|977-984). A stock solution of malonomicin was produced in water plus 0.025% Tween20.
(§2) Assays to test efficacy of mixtures of cyclothiazomycin C in combination with malonomicin on the control of fungal pathogens in a leaf disc assay were designed for two plates.
(§3) A first set of master plates with 1× concentrated spray solution of the cyclothiazomycin C stock diluted in water with concentrations according to Table 11 or Table 12, respectively, was prepared. Each well contained 2% DMSO and 0.025% Tween20. Accordingly, a second set of master plates with 1× concentrated malonomicin stock diluted in water was prepared. Each well of the second set contained 0.025% Tween20. Leaf segments placed on agar in plates are sprayed with 8 ul of solution from the master plate containing cyclothiazomycin C and the leaf segments were let to dry, followed 2 hours later by 8 ul of solution from the master plate containing malonomicin. After second sprays have dried, leaf segments are infected with fungal spores to obtain a preventive application timing. Alternatively, leaf segments infected one day before spray of the compounds are used, resulting in a curative spray timing. In addition, several plates were produced where leaf segments were sprayed 2× in absence of test compound (with only DMSO and Tween20), representing the untreated check samples. For each leaf segment percent leaf coverage of disease symptoms was assessed. Percent leaf coverage reduction relative to the untreated check was calculated. Efficacy of the mixtures was tested in duplicate. Reported efficacy values are the average of two replicate results.
Puccinia recondita (EPPO Code: PUCCRE) with Curative Spray Timing.
Wheat (cultivar Kanzler) leaf segments are placed on agar in multiwell plates. The leaf disks are then inoculated with a spore suspension of the fungus. One day after inoculation the test solution is sprayed (8 ul per well). After appropriate incubation the activity of a compound is assessed 8 dpi (days after inoculation) as curative fungicidal activity

[3] = system: a variety of fungal strains; details: quoted from WO2015191789, page 31; cited from earlier work
[4] = system: Microdochium nivale; assay: liquid culture assay, 96 well plate, Microdochium nivale; assay type: cell-based
Procedure: as §1, with “Tween®20.” for “Tween20.”
(§4) Assays to test efficacy of mixtures of cyclothiazomycin C in combination with malonomicin on the control of fungal pathogens in a liquid culture assay were designed for a 96 well plate.
(§5) A master plate with 10× concentrated solution of the compound stock solutions diluted in water plus 0.025% Tween20 was prepared. The concentration of DMSO (from the stock of cyclothiazomycin C) and Tween20 was kept constant in all cells of th the master plate. 10 μl was transferred from the master plate to a 96 well test plate. The nutrient broth containing the fungal spores/mycelia fragments was then added to the test plate to give an end concentration of 1× for the tested compounds (as outlined in Table 1). The test plates were incubated in the dark at 24° C. and 96% rh. The inhibition of fungal growth was determined photometrically after ca. 3 days, and percent fungal growth reduction relative to the untreated check was calculated. Efficacy of the mixtures was tested on different fungal species:
Microdochium nivale (EPPO Code: MONGNI)
(§6) Conidia of the fungus from cryogenic storage were directly mixed into nutrient broth (PDB: potato dextrose broth).

[5] = system: Puccinia recondita; assay: wheat leaf disc assay, Puccinia recondita, preventive spray timing; assay type: in vivo
Procedure: as §1, §2, §3
Puccinia recondita (EPPO Code: PUCCRE) with Preventive Spray Timing.
Wheat (cultivar Kanzler) leaf segments are placed on agar in multiwell plates and sprayed with test solutions (8 ul per well). After drying, the leaf disks are inoculated with a spore suspension of the fungus. After appropriate incubation the activity of a compound is assessed 8 dpi (days after inoculation) as preventive fungicidal activity.

[6] = system: Fusarium culmorum; assay: liquid culture assay, 96 well plate, Fusarium culmorum; assay type: cell-based
Procedure: as §1, with “Tween®20.” for “Tween20.”
as §4, §5
Fusarium culmorum (EPPO Code: FUSACU)
as §6

[7] = system: Botrytis cinerea; assay: liquid culture assay, 96 well plate, Botrytis cinerea; assay type: cell-based
Procedure: as §1, with “Tween®20.” for “Tween20.”
as §4, §5
Botrytis cinerea (EPPO Code: BOTRCI)
Conidia of the fungus from cryogenic storage were directly mixed into nutrient broth (Vogel's minimal media).

[8] = system: Zymoseptoria tritici; assay: liquid culture assay, 96 well plate, Zymoseptoria tritici; assay type: cell-based
Procedure: as §1, with “Tween®20.” for “Tween20.”
as §4, §5
Zymoseptoria tritici (EPPO Code: SEPTTR)
as §6

[9] = cyclothiazomycin C 3.13 ppm solo
[10] = cyclothiazomycin C 6.25 ppm solo
[11] = cyclothiazomycin C 12.5 ppm solo
[12] = cyclothiazomycin C 100 ppm solo
[13] = cyclothiazomycin C 200 ppm solo
[14] = cyclothiazomycin C 1.56 ppm solo
[15] = cyclothiazomycin C 3.125 ppm solo

**Q.** For `C=C1NC(=O)CNC(=O)[C@H](CCCCN)NC(=O)[C@@]2(C)NC(=O)/C(=C/C)NC(=O)[C@H]3CSC(=N3)[C@@H](CC(N)=O)NC(=O)c3ccc(nc3[C@@H](C)NC(=O)[C@@H]3CCCN3C1=O)-c1nc(cs1)C1=N[C@H](CS1)C(=O)NC(=C)c1nc(cs1)-c1nc(cs1)C1=N[C@@H](CS1)C(=O)N[C@@H](C(=O)O)CS2` [cyclothiazomycin C], which antimicrobial inhibitory activity [1] is on record?
**A.** The antimicrobial inhibitory activity was “greatest inhibitory activity”.

**Q.** And the “control of fungal growth (% reduction of symtoms on the leaf segment)” value [2, 9]?
**A.** The value was 0%.

**Q.** And the “control of fungal growth (% reduction of symtoms on the leaf segment)” value [2, 10]?
**A.** The value was 10%.

**Q.** And the “control of fungal growth (% reduction of symtoms on the leaf segment)” value [2, 11]?
**A.** The value was 0%.

**Q.** And the “control of fungal growth (% reduction of symtoms on the leaf segment)” value ([2]; cyclothiazomycin C 25 ppm solo)?
**A.** The value was 0%.

**Q.** And the “control of fungal growth (% reduction of symtoms on the leaf segment)” value ([2]; cyclothiazomycin C 50 ppm solo)?
**A.** The value was 0%.

**Q.** What about the “control of fungal growth (% reduction of symtoms on the leaf segment)” value [2, 12] of the same compound?
**A.** The value was 0%.

**Q.** What about the “control of fungal growth (% reduction of symtoms on the leaf segment)” value [2, 13] of the same compound?
**A.** The value was 0%.

**Q.** What about the “growth inhibitory action toward a variety of fungal strains” value [3] of the same compound?
**A.** Its value is “none was observed”.

**Q.** What about the “control of fungal growth” value [4, 14] of the same compound?
**A.** The value was 70%.

**Q.** And the “control of fungal growth” value [4, 15]?
**A.** Its value is 70%.

**Q.** And the “control of fungal growth” value [4, 10]?
**A.** Its value is 70%.

**Q.** And the “control of fungal growth” value [4, 11]?
**A.** The value was 70%.

**Q.** And the “control of fungal growth” value ([4]; cyclothiazomycin C 25 ppm solo)?
**A.** Its value is 90%.

**Q.** What about the “control of fungal growth” value ([4]; cyclothiazomycin C 50 ppm solo) of the same compound?
**A.** Its value is 90%.

**Q.** And the “control of fungal growth” value [4, 12]?
**A.** The value was 90%.

**Q.** And the “control of fungal growth (% reduction of symtoms on the leaf segment)” value [5, 9]?
**A.** The value was 0%.

**Q.** And the “control of fungal growth (% reduction of symtoms on the leaf segment)” value [5, 10]?
**A.** Its value is 0%.

**Q.** And the “control of fungal growth (% reduction of symtoms on the leaf segment)” value [5, 11]?
**A.** Its value is 10%.

**Q.** And the “control of fungal growth (% reduction of symtoms on the leaf segment)” value ([5]; cyclothiazomycin C 25 ppm solo)?
**A.** The value was 95%.

**Q.** What about the “control of fungal growth (% reduction of symtoms on the leaf segment)” value ([5]; cyclothiazomycin C 50 ppm solo) of the same compound?
**A.** Its value is 95%.

**Q.** What about the “control of fungal growth (% reduction of symtoms on the leaf segment)” value [5, 12] of the same compound?
**A.** The value was 95%.

**Q.** And the “control of fungal growth (% reduction of symtoms on the leaf segment)” value [5, 13]?
**A.** Its value is 100%.

**Q.** And the “control of fungal growth” value [6, 14]?
**A.** Its value is 20%.

**Q.** What about the “control of fungal growth” value [6, 15] of the same compound?
**A.** Its value is 20%.

**Q.** And the “control of fungal growth” value [6, 10]?
**A.** Its value is 20%.

**Q.** And the “control of fungal growth” value [6, 11]?
**A.** The value was 20%.

**Q.** And the “control of fungal growth” value ([6]; cyclothiazomycin C 25 ppm solo)?
**A.** Its value is 20%.

**Q.** And the “control of fungal growth” value ([6]; cyclothiazomycin C 50 ppm solo)?
**A.** Its value is 20%.

**Q.** And the “control of fungal growth” value [6, 12]?
**A.** Its value is 20%.

**Q.** What about the “control of fungal growth” value [7, 14] of the same compound?
**A.** Its value is 20%.

**Q.** What about the “control of fungal growth” value [7, 15] of the same compound?
**A.** Its value is 20%.

**Q.** What about the “control of fungal growth” value [7, 10] of the same compound?
**A.** The value was 20%.

**Q.** What about the “control of fungal growth” value [7, 11] of the same compound?
**A.** Its value is 20%.

**Q.** What about the “control of fungal growth” value ([7]; cyclothiazomycin C 25 ppm solo) of the same compound?
**A.** Its value is 20%.

**Q.** What about the “control of fungal growth” value ([7]; cyclothiazomycin C 50 ppm solo) of the same compound?
**A.** Its value is 20%.

**Q.** What about the “control of fungal growth” value [7, 12] of the same compound?
**A.** The value was 20%.

**Q.** And the “control of fungal growth” value [8, 14]?
**A.** Its value is 70%.

**Q.** And the “control of fungal growth” value [8, 15]?
**A.** The value was 70%.

**Q.** What about the “control of fungal growth” value [8, 10] of the same compound?
**A.** The value was 70%.

**Q.** What about the “control of fungal growth” value [8, 11] of the same compound?
**A.** The value was 70%.

**Q.** What about the “control of fungal growth” value ([8]; cyclothiazomycin C 25 ppm solo) of the same compound?
**A.** Its value is 90%.

**Q.** And the “control of fungal growth” value ([8]; cyclothiazomycin C 50 ppm solo)?
**A.** The value was 90%.

**Q.** And the “control of fungal growth” value [8, 12]?
**A.** The value was 100%.
